Assays:
[1] = molecular target: T1, isolated kinase domain of the human FLT3 receptor (a.a. 571-993) (Homo sapiens, UniProt P36888); assay: FLT3 fluorescence polarization kinase assay; assay type: biochemical; settings: 150 uM ATP; uncertainty ±10%
T1 construct: human FLT3 receptor (a.a. 571-993)
T1 sequence (P36888 571-993): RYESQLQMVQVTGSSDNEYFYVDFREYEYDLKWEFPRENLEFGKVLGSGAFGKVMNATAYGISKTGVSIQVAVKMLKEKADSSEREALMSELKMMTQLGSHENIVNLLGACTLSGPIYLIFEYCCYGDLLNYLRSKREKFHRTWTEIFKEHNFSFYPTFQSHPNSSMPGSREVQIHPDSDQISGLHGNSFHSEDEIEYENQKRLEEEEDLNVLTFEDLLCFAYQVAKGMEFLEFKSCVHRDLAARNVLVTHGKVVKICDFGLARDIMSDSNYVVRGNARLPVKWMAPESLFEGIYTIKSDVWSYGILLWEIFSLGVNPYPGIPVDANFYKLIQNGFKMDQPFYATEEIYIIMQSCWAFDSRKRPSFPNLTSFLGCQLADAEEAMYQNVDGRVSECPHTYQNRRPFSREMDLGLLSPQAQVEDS

MV4-11 cells = assay: Inhibition of MV4-11 cell proliferation (CellTiterGlo, 72 h); assay type: cell-based; settings: Homo sapiens; 72 h growth inhibition; uncertainty ±20%

Row | Compound | IC50 [1] [nM] | IC50 (MV4-11 cells) [nM]
1 | CCN(CC)CCCOc1ccc2c(C3CCN(C(=O)Nc4ccc(N5CCOCC5)cc4)CC3)ncnc2c1 [Example 134, 4-[7-(3-Diethylamino-propoxy)-quinazolin-4-yl]-piperidine-1-carboxylic acid (4-morpholin-4-yl-phenyl)-amide] | 2 | 43
2 | O=C(Nc1ccc(N2CCOCC2)cc1)N1CCC(c2ncnc3cc(N4CCOCC4)ccc23)CC1 [Example 145, 4-(7-Morpholin-4-yl-quinazolin-4-yl)-piperidine-1-carboxylic acid (4-morpholin-4-yl-phenyl)-amide] | 65 | 137
3 | O=C(Nc1ccc(N2CCCC2)cc1)N1CCC(c2ncnc3cc(OC4CCOCC4)ccc23)CC1 [Compound 189, 4-[7-(Tetrahydro-pyran-4-yloxy)-quinazolin-4-yl]-piperidine-1-carboxylic acid (4-pyrrolidin-1-yl-phenyl)-amide] | 1130 | 286
4 | CN1CCN(CCOc2ccc3c(C4CCN(C(=O)Nc5ccc(N6CCCC6)cc5)CC4)ncnc3c2)CC1 [Example 157, 4-{7-[2-(4-Methyl-piperazin-1-yl)-ethoxy]-quinazolin-4-yl}-piperidine-1-carboxylic acid (4-pyrrolidin-1-yl-phenyl)-amide] | 0.5 | 9
5 | O=C(Nc1ccc(N2CCCC2)cc1)N1CCC(c2ncnc3cc(N4CCN(c5ncccn5)CC4)ccc23)CC1 [Compound 193, 4-[7-(4-Pyrimidin-2-yl-piperazin-1-yl)-quinazolin-4-yl]-piperidine-1-carboxylic acid (4-pyrrolidin-1-yl-phenyl)-amide] | 4 | 16
6 | O=C(Nc1ccc(N2CCCC2)cc1)N1CCC(c2ncnc3cc(N4CCNC4=O)ccc23)CC1 [Compound 178, 4-[7-(2-Oxo-imidazolidin-1-yl)-quinazolin-4-yl]-piperidine-1-carboxylic acid (4-pyrrolidin-1-yl-phenyl)-amide] | 10 | 11
7 | O=C(Nc1ccc(N2CCCC2)cc1)N1CCC(c2ncnc3cc(N4CCN(c5ccncc5)CC4)ccc23)CC1 [Compound 194, 4-[7-(4-Pyridin-4-yl-piperazin-1-yl)-quinazolin-4-yl]-piperidine-1-carboxylic acid (4-pyrrolidin-1-yl-phenyl)-amide] | 20 | 0.4
8 | COc1cc2ncnc(C3CCN(C(=O)Nc4ccc(N5CCCCC5)cc4)CC3)c2cc1OC [Example 19, 4-(6,7-Dimethoxy-quinazolin-4-yl)-piperidine-1-carboxylic acid (4-piperidin-1-yl-phenyl)-amide] | 17 | 10
9 | O=C(Nc1ccc(N2CCCC2)cc1)N1CCC(c2ncnc3cc(Oc4cccnc4)ccc23)CC1 [Example 174, 4-[7-(Pyridin-3-yloxy)-quinazolin-4-yl]-piperidine-1-carboxylic acid (4-pyrrolidin-1-yl-phenyl)-amide] | 42 | 214
10 | CN(C)CC(=O)N1CCN(c2ccc3c(C4CCN(C(=O)Nc5ccc(N6CCOCC6)cc5)CC4)ncnc3c2)CC1 [Example 144, 4-{7-[4-(2-Dimethylamino-acetyl)-piperazin-1-yl]-quinazolin-4-yl}-piperidine-1-carboxylic acid (4-morpholin-4-yl-phenyl)-amide] | 13 | 117

The remaining molecules from weak to strong by IC50 [1], led by results:

Row | IC50 [1] [nM] | IC50 (MV4-11 cells) [nM] | Compound
11 | 146 | 21 | CCN1CCN(c2ccc3c(C4CCN(C(=O)Nc5ccc(N6CCCC6)cc5)CC4)ncnc3c2)CC1 [Compound 187, 4-[7-(4-Ethyl-piperazin-1-yl)-quinazolin-4-yl]-piperidine-1-carboxylic acid (4-pyrrolidin-1-yl-phenyl)-amide]
12 | 93 | 15 | COCCN1CCN(c2ccc3c(C4CCN(C(=O)Nc5ccc(N6CCCC6)cc5)CC4)ncnc3c2)CC1 [Compound 186, 4-{7-[4-(2-Methoxy-ethyl)-piperazin-1-yl]-quinazolin-4-yl}-piperidine-1-carboxylic acid (4-pyrrolidin-1-yl-phenyl)-amide]
13 | 32 | 46 | CC(=O)N1CCC[C@H]1COc1ccc2c(C3CCN(C(=O)Nc4ccc(N5CCCC5)cc4)CC3)ncnc2c1 [Example 162, (S)-4-[7-(1-Acetyl-pyrrolidin-2-ylmethoxy)-quinazolin-4-yl]-piperidine-1-carboxylic acid (4-pyrrolidin-1-yl-phenyl)-amide]
14 | 25 | 36 | CS(=O)(=O)N1CCN(CCCOc2ccc3c(C4CCN(C(=O)Nc5ccc(N6CCCC6)cc5)CC4)ncnc3c2)CC1 [Example 164, 4-{7-[3-(4-Methanesulfonyl-piperazin-1-yl)-propoxy]-quinazolin-4-yl}-piperidine-1-carboxylic acid (4-pyrrolidin-1-yl-phenyl)-amide]
15 | 14 | 269 | CN(C)[C@@H]1CCN(c2ccc3c(C4CCN(C(=O)Nc5ccc(N6CCOCC6)cc5)CC4)ncnc3c2)C1 [Example 150, (R)-4-[7-(3-Dimethylamino-pyrrolidin-1-yl)-quinazolin-4-yl]-piperidine-1-carboxylic acid (4-morpholin-4-yl-phenyl)-amide]
16 | 12 | 74 | O=C(Nc1ccc(N2CCOCC2)cc1)N1CCC(c2ncnc3cc(N4CCN(CCO)CC4)ccc23)CC1 [Example 137, 4-{7-[4-(2-Hydroxy-ethyl)-piperazin-1-yl]-quinazolin-4-yl}-piperidine-1-carboxylic acid (4-morpholin-4-yl-phenyl)-amide]
17 | 11 | 107 | O=C(Nc1ccc(N2CCCC2)cc1)N1CCC(c2ncnc3cc(N4CCSCC4)ccc23)CC1 [Compound 182, 4-(7-Thiomorpholin-4-yl-quinazolin-4-yl)-piperidine-1-carboxylic acid (4-pyrrolidin-1-yl-phenyl)-amide]
18 | 9 | 17 | CC(=O)N1CCN(c2ccc3c(C4CCN(C(=O)Nc5ccc(N6CCCC6)cc5)CC4)ncnc3c2)CC1 [Example 166, 4-[7-(4-Acetyl-piperazin-1-yl)-quinazolin-4-yl]-piperidine-1-carboxylic acid (4-pyrrolidin-1-yl-phenyl)-amide]
19 | 7 | 27 | COc1cc2ncnc(C3CCN(C(=O)Nc4ccc(C5CCCCC5)cc4)CC3)c2cc1OC [Example 21, 4-(6,7-Dimethoxy-quinazolin-4-yl)-piperidine-1-carboxylic acid (4-cyclohexyl-phenyl)-amide]
20 | 6 | 88 | CS(=O)(=O)N1CCN(c2ccc3c(C4CCN(C(=O)Nc5ccc(N6CCOCC6)cc5)CC4)ncnc3c2)CC1 [Example 142, 4-[7-(4-Methanesulfonyl-piperazin-1-yl)-quinazolin-4-yl]-piperidine-1-carboxylic acid (4-morpholin-4-yl-phenyl)-amide]
21 | 1 | 13 | O=C(Nc1ccc(N2CCCC2)cc1)N1CCC(c2ncnc3cc(OCCCN4CCC[C@H]4CO)ccc23)CC1 [Example 161, (S)-4-{7-[3-(2-Hydroxymethyl-pyrrolidin-1-yl)-propoxy]-quinazolin-4-yl}-piperidine-1-carboxylic acid (4-pyrrolidin-1-yl-phenyl)-amide]

From patent US20070004660A1, “Synergistic Modulation of Flt3 Kinase Using Alkylquinolines and Alkylquinazolines” (priority 2005, published 2007)
